Key:
[1] = system: MAP reverse tolerance model; assay: Test to confirm effects of administration with fluoxetine or paroxetine in the MAP reverse tolerance model; format: in vivo, mice
Method: Regarding formation of reverse tolerance, 1 mg/kg/day MAP was administered to eight-week-old male ddy mice for ten days as a pretreatment in a similar way to the abovementioned method. After a 11-day washout period, 10 mg/kg/day fluoxetine was then administered. Fluoxetine was prepared by dissolving in saline and administered by subcutaneous injection. In addition, after 9 to 11-day washout period, 0.24 mg/kg MAP was administered, the locomotor hyperactivity of the mice was measured and evaluated one hour later.
Regarding formation of reverse tolerance, MAP 1 mg/kg/day […] was administered to eight-week-old male ddy mice for ten days as a pretreatment in a similar way to the abovementioned method. After an 11-day washout period, 8 mg/kg/day paroxetine was then administered. Paroxetine was prepared by dissolving in saline and administered by subcutaneous injection. In addition, after 9 to 11-day washout period, 0.24 mg/kg MAP was administered, and the locomotor hyperactivity of the mice was measured and evaluated one hour later.

[2] = system: male ddy mice; assay: Test for formation/maintenance of reverse tolerance; format: in vivo
Method: Methamphetamine (hereinafter, may be also referred to as “MAP”) which is a psychostimulant was administered to an animal, and then formation/maintenance of reverse tolerance was verified. In this test, eight-week-old male ddy mice were used. […] First, mice were divided into two groups, and then 1 mg/kg/day MAP and saline were respectively administered to each group for ten days as pretreatment. The agent was prepared by dissolving in saline and administered by subcutaneous injection. Hereinafter, the group to which MAP was administered is called “MAP administrated group”, and the group to which saline was administered is called “SAL administrated group”. MAP of 1 mg/kg used here corresponds an amount to result in increase in locomotor hyperactivity when it is administered to mice. In addition, a first administration of MAP was conducted after a 10-day washout period in order to confirm if this phenomenon was maintained. The dosage, 0.24 mg/kg, was less than that of the pretreatment, which is reportedly a quantity not causing abnormal behavior to appear in normal mice received the administration. Then, following a 29-day washout period, a second administration was conducted. Upon the administration on the day 10 and the day 29, MAP was also administered to the SAL administrated group in the same amount as administered to the MAP administrated group.
During the pretreatment, activity quantity in an hour was measured after MAP or saline administration on Days 1, 3, 7, and 10. […] In the case of a typical drug administration, tolerance is formed to gradually decrease influences of the administered drug.
In addition, comparing the MAP administrated group with the SAL administrated group, in both administrations on day 10 and day 29, it was clear that the activity quantity of the MAP administrated group was higher, so that it was confirmed that influences of the drug were maintained even after a longer than one-month washout period.

CNCCC(Oc1ccc(C(F)(F)F)cc1)c1ccccc1 (stereo not drawn) [FLX, fluoxetine]
locomotor hyperactivity vs group without FLX in the treatment phase (Example 1 vs Comparative Example 7) ([1]; MAP 1 mg/kg/day for 10 days, 11-day washout, fluoxetine 10 mg/kg/day s.c., 9 to 11-day washout, 0.24 mg/kg MAP, measured one hour later): locomotor hyperactivity decreased | reverse tolerance, vs group in which reverse tolerance was not formed (Example 1 vs Comparative Example 3) ([1]; fluoxetine 10 mg/kg/day s.c. after MAP pretreatment, 0.24 mg/kg MAP challenge): reverse tolerance disappeared | effect of FLX itself on activity quantity (Comparative Example 1 vs 2, 3 vs 4) ([1]; saline pretreatment, reverse tolerance not formed, fluoxetine 10 mg/kg/day s.c.): did not decrease the activity quantity

CN[C@@H](C)Cc1ccccc1 [MAP, Methamphetamine]
activity quantity after MAP re-administration, MAP administrated group vs SAL administrated group ([2]; 0.24 mg/kg MAP on day 10 and day 29 after washout): higher | formation of reverse tolerance ([2]; MAP 1 mg/kg/day s.c. for ten days): reverse tolerance was formed | activity quantity in an hour (locomotor hyperactivities per hour) during pretreatment ([2]; MAP 1 mg/kg/day s.c. for ten days, measured on Days 1, 3, 7 and 10): increased in a time dependent manner

Fc1ccc([C@@H]2CCNC[C@H]2COc2ccc3c(c2)OCO3)cc1 [PLX, paroxetine]
locomotor hyperactivity vs group without PLX in the treatment phase (Example 2 vs Comparative Example 14) ([1]; MAP 1 mg/kg/day for 10 days, 11-day washout, paroxetine 8 mg/kg/day s.c., 9 to 11-day washout, 0.24 mg/kg MAP, measured one hour later): locomotor hyperactivity decreased | reverse tolerance, vs group in which reverse tolerance was not formed (Example 2 vs Comparative Example 10) ([1]; paroxetine 8 mg/kg/day s.c. after MAP pretreatment, 0.24 mg/kg MAP challenge): reverse tolerance disappeared | effect of PLX itself on activity quantity (Comparative Example 8 vs 9, 10 vs 11) ([1]; saline pretreatment, reverse tolerance not formed, paroxetine 8 mg/kg/day s.c.): did not decrease activity quantity

Reference: patent US20090036488A1, “RECURRENCE PREVENTIVE THERAPEUTIC AGENT FOR PSYCHOSTIMULANT-INDUCED PSYCHOSIS AND SCHIZOPHRENIA” (Tokyo Medical and Dental University, priority 2005, published 2009)
